Measurements published in US12540131B2 (Merck Sharp & Dohme LLC, priority 2019, dated 2026).

The molecules below were run against GST tagged truncated human mutant G2019S LRRK2 (Homo sapiens (Human), UniProt Q5S007, G2019S) (assay: LRRK2 Km ATP LanthaScreen Assay). Conditions: G2019S LRRK2, 134 μM ATP (Km ATP), mean values.
Type: biochemical
In short: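 Enzyme (GST-tagged, truncated) was preincubated with compound for 15 min at RT in 50 mM Tris pH 8.5, 10 mM MgCl2, 0.01% Brij-35, 1 mM EGTA, 2 mM DTT and 0.05 mM orthovanadate. Fluorescein-LRRKtide and 134 μM ATP (Km) were then added for 90 min. EDTA and Tb-anti-pERM antibody stopped the reaction; the TR-FRET 520/495 ratio gave 4-parameter IC50s, reported as mean pIC50.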

Sequence of GST tagged truncated human mutant G2019S LRRK2 (Q5S007 970-2527 G2019S): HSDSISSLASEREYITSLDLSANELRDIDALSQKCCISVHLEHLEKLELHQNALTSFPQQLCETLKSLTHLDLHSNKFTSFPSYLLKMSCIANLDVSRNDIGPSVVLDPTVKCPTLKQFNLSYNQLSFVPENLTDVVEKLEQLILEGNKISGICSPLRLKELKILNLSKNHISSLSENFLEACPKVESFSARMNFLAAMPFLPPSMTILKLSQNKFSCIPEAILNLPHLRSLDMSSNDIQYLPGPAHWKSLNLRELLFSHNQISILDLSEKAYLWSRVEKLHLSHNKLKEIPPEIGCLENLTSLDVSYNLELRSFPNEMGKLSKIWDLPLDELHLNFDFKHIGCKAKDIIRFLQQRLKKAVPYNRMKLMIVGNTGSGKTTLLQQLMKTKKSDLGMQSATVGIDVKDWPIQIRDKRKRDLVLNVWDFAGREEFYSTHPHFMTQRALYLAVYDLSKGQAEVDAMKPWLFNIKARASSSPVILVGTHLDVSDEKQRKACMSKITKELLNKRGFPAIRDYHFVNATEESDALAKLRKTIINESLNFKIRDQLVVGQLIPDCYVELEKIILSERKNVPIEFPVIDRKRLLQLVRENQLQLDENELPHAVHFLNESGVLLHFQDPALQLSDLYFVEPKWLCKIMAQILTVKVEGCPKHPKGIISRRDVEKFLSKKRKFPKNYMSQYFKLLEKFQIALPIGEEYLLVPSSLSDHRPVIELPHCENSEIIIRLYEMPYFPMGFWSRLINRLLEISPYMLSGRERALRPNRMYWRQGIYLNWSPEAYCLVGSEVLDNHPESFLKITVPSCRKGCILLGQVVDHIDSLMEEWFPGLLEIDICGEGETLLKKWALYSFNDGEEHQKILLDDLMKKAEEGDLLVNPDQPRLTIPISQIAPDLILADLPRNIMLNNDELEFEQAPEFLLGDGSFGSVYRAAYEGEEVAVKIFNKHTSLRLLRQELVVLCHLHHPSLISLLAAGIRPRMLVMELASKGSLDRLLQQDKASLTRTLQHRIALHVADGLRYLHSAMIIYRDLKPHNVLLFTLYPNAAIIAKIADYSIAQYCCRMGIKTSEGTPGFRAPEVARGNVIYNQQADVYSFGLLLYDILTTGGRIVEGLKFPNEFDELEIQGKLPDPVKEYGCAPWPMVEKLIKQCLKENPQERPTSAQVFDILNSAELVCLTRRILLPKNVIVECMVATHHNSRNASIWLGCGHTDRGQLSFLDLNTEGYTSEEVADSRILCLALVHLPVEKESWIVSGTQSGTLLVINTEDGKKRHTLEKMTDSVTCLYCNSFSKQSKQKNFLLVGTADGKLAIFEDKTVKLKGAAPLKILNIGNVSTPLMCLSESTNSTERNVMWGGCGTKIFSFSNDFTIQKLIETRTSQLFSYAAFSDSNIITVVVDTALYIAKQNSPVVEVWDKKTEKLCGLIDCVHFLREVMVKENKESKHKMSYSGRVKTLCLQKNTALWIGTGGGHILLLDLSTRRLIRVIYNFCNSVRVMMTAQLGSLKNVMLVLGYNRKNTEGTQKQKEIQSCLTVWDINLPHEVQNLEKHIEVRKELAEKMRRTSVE

Compound | LRRK2 pIC50
FC1COCC1N1CC[C@@H](c2cc3nc(Nc4cnn(C5CC5(F)F)c4Cl)ncc3cc2Cl)C(F)C1 (stereo partly shown) [Ex-7.1] | 9.01
Cn1ncc(Nc2ncc3cc(Cl)c(C4CCN([C@]5(C)COC[C@@H]5O)CC4)cc3n2)c1C(F)F (single isomer, unassigned) [Ex-2.82, (3S,4S) or (3R,4R) 4-[4-(6-chloro-2-{[5-(difluoromethyl)-1-methyl-1H-pyrazol-4-yl]amino}quinazolin-7-yl)piperidin-1-yl]-4-methyloxolan-3-ol] | >9.20
Cc1cc2cnc(Nc3cnn(C4CC4)c3Cl)nc2cc1[C@@H]1CCN(C2COC[C@@H]2O)C[C@H]1F (single isomer, unassigned) [Ex-4.135, (3S,4S)(3S,4S) or (3S,4S)(3R,4R) or (3R,4R)(3S,4S) or (3R,4R)(3R,4R) 4-(4-{2-[(5-chloro-1-cyclopropyl-1H-pyrazol-4-yl)amino]-6-methylquinazolin-7-yl}-3-fluoropiperidin-1-yl)oxolan-3-ol] | >9.20
Cc1c(Nc2ncc3cc(Cl)c([C@@H]4CCN([C@H]5COC[C@H]5O)C[C@H]4F)cc3n2)cnn1C (single isomer, unassigned) [Ex-4.256, (3S,4S)(3S,4S) or (3S,4S)(3R,4R) or (3R,4R)(3S,4S) or (3R,4R)(3R,4R) 4-(4-(6-chloro-2-((1,5-dimethyl-1H-pyrazol-4-yl)amino)quinazolin-7-yl)-3-fluoropiperidin-1-yl)tetrahydrofuran-3-ol] | >9.20
CN1CC[C@H](c2cc3nc(Nc4cnn(C5(C)CC5)c4Cl)ncc3cc2Cl)[C@@H](O)C1 (single isomer, unassigned) [Ex-4.30, (3S,4S) or (3R,4R) 4-(6-chloro-2-{[5-chloro-1-(1-methylcyclopropyl)-1H-pyrazol-4-yl]amino}quinazolin-7-yl)-1-methylpiperidin-3-ol] | 7.32
OC1COCC1n1ncc(Nc2ncc3cc(Cl)c(C4CCN(C5COC5)CC4)cc3n2)c1Cl (single isomer, unassigned) [Ex-2.47, (3S,4S) or (3R,4R) or (3S,4R) or (3R,4S) 4-[5-chloro-4-({6-chloro-7-[1-(oxetan-3-yl)piperidin-4-yl]quinazolin-2-yl}amino)-1H-pyrazol-1-yl]oxolan-3-ol] | 9.11
Cc1cc(Nc2ncc3cc(Cl)c([C@H]4CCN(C)C[C@@H]4F)cc3n2)sn1 (single isomer, unassigned) [Ex-4.53, (3S,4S) or (3R,4R) 6-chloro-7-(3-fluoro-1-methylpiperidin-4-yl)-N-(3-methyl-1,2-thiazol-5-yl)quinazolin-2-amine] | >9.20
Cc1cc2cnc(Nc3cnn(C45CC(C4)C5)c3Cl)nc2cc1[C@@H]1CCN([C@@H]2COC[C@@H]2O)C[C@H]1F (single isomer, unassigned) [Ex-8.33, (3S,4S)(3S,4S) or (3S,4S)(3R,4R) or (3R,4R)(3S,4S) or (3R,4R)(3R,4R) 4-[4-(2-{[1-(bicyclo[1.1.1]pentan-1-yl)-5-chloro-1H-pyrazol-4-yl]amino}-6-methylquinazolin-7-yl)-3-fluoropiperidin-1-yl]oxolan-3-ol] | >9.20

Same assay, conditions: G2019S LRRK2, 134 μM ATP (Km ATP), mean values; read-out: LRRK2 pIC50 (converted)

Compound | IC50 [nM]
CC(n1ncc(Nc2ncc3cc(Cl)c(C4CCN(C5COC5)CC4)cc3n2)c1Cl)C(C)(C)O (single isomer, unassigned) [Ex-4.67, (S) or (R) 3-[5-chloro-4-({6-chloro-7-[1-(oxetan-3-yl)piperidin-4-yl]quinazolin-2-yl}amino)-1H-pyrazol-1-yl]-2-methylbutan-2-ol] | < 0.631
Cc1nsc(Nc2ncc3cc(Cl)c(C4CCN(C5CCOC5)CC4)cc3n2)c1Cl (single isomer, unassigned) [Ex-8.18, (S) or (R) 6-chloro-N-(4-chloro-3-methyl-1,2-thiazol-5-yl)-7-[1-(oxolan-3-yl)piperidin-4-yl]quinazolin-2-amine] | < 0.631
